# Assay results taken from US11759464B2, “Gonadotropin-releasing hormone antagonist dosing regimens for treating uterine fibroids and reducing menstrual blood loss” (ObsEva S.A., priority 2017, dated 2023).
# How the values were obtained:
# Assay type in all cases: in vivo
# [1] = test system: healthy human female subjects; test: biomarkers of bone mineral density (creatinine-normalized deoxypyridinoline); details: 100 mg/day + 1.0 mg/day E2 and 0.5 mg/day norethindrone acetate, urine (FIG. 25)
# Protocol: (§1) To assess the effects of compound (II) on serum β17-estradiol concentration and menstrual blood loss, a total of 75 healthy human female subjects were divided into five treatment groups, as described in Table 1, below. The subjects were screened for a period of four weeks prior to the commencement of treatment with compound (II). At the conclusion of the four week screening period, the subjects in each treatment arm were administered an equivalent dosage of norethindrone acetate of 5 mg×3 times daily. This 15 mg/day dosage was administered for a total of 11 days so as to allow synchronization of menses among the subjects. The subjects were subsequently not treated for the ensuing 4 days. Following this withdrawal period, the subjects were treated with compound (II), with or without add-back therapy, once daily for 42 days according to the dosages set forth in Table 1. Following the 42-day treatment cycle, the subjects were further monitored for a period of 13 days. In addition to assessing the ability of compound (II) to modulate serum E2 and progesterone levels and to curtail menstrual bleeding, compound (II) was evaluated for its effects on biomarkers of bone mineral density (FIGS. 25-29). These markers include creatinine-normalized deoxypyridinoline (DPD), which is excreted in larger quantities when bone resorption is increased.
# [2] = test system: healthy human female subjects; test: menstrual bleeding pattern (amenorrhea) during treatment; details: for Amenorrhea (no bleeding), subjects / Amenorrhea + spotting only, subjects: last 4 weeks of treatment
# Protocol: as §1, with “To assess” for “In addition to assessing”, “effects” for “ability”, “on” for “to modulate serum E2 and progesterone levels and to curtail”, “blood loss, the volume of menstrual blood lost by each subject” for “bleeding, compound (II)”, “evaluated over the course of the entirety of the study, including the 11-day screening period, 4-day withdrawal period, 42-treatment period, and 13-day post-treatment evaluation period. Assessment of menstrual blood loss was conducted using an electronic diary method, as subjects recorded daily whether their bleeding” for “evaluated”, “each day was heavy, moderate, or light spotting.” for “its effects on biomarkers of bone mineral density (FIGS. 25-29). These markers include creatinine-normalized deoxypyridinoline (DPD), which is excreted in larger quantities when bone resorption is increased.”
# [3] = test system: healthy human female subjects; test: serum β17-estradiol (E2) concentration during 42-day once-daily treatment
# Protocol: To assess the effects of compound (II) on serum β17-estradiol concentration and menstrual blood loss, a total of 75 healthy human female subjects were divided into five treatment groups, as described in Table 1, below. The subjects were screened for a period of four weeks prior to the commencement of treatment with compound (II). At the conclusion of the four week screening period, the subjects in each treatment arm were administered an equivalent dosage of norethindrone acetate of 5 mg×3 times daily. This 15 mg/day dosage was administered for a total of 11 days so as to allow synchronization of menses among the subjects. The subjects were subsequently not treated for the ensuing 4 days. Following this withdrawal period, the subjects were treated with compound (II), with or without add-back therapy, once daily for 42 days according to the dosages set forth in Table 1. Following the 42-day treatment cycle, the subjects were further monitored for a period of 13 days. As used herein, the add-back regime of 1.0 mg/day β17-estradiol and 0.5 mg/day norethindrone acetate is referred to as the “high-dose” or […] add-back dosage, while the add-back regime of 0.5 mg/day β17-estradiol and 0.1 mg/day norethindrone acetate was referred to as the “low-dose” or “LD” add-back dosage. This labeling convention is used throughout this Example and is additionally referred to in the Figures.
# [4] = 100 mg daily + add-back E2/NETA 0.5 mg/0.1 mg
# [5] = 100 mg daily + add-back E2/NETA 0.5 mg/0.1 mg, listed as compound (II)
# [6] = 100 mg daily + add-back E2/NETA 1 mg/0.5 mg
# [7] = 100 mg daily + add-back E2/NETA 1 mg/0.5 mg, listed as compound (II)
# [8] = 100 mg daily, no add-back, listed as compound (II)
# [9] = 200 mg daily + add-back E2/NETA 1 mg/0.5 mg
# [10] = 200 mg daily + add-back E2/NETA 1 mg/0.5 mg, listed as compound (II)
# [11] = 200 mg daily, no add-back, listed as compound (II)
structure (smiles),measurement,setting,value
"COc1cc(F)c(-n2c(=O)[nH]c3csc(C(=O)O)c3c2=O)cc1OCc1c(OC)ccc(F)c1F [Compound (II), choline 3-[2-fluoro-5-(2,3-difluoro-6-methoxybenzyloxy)-4-methoxyphenyl]-2,4-dioxo-1,2,3,4-tetrahydrothieno [3,4d]pyrimidine-5-carboxylate]","creatinine-normalized deoxypyridinoline (DPD), comparison among arms",[1],smallest increase
same,"Amenorrhea (no bleeding), subjects",[2]; [4],21%
same,"Amenorrhea + spotting only, subjects",[2]; [4],57%
same,"Amenorrhea (no bleeding), subjects",[2]; [5],at least 21%
same,"Amenorrhea + spotting only, subjects",[2]; [5],at least 57%
same,"Amenorrhea (no bleeding), subjects",[2]; [6],53%
same,"Amenorrhea + spotting only, subjects",[2]; [6],93%
same,"Amenorrhea (no bleeding), subjects",[2]; [7],at least 53%
same,"Amenorrhea + spotting only, subjects",[2]; [7],at least 93%
same,"Amenorrhea (no bleeding), subjects","[2]; 100 mg daily, no add-back",86%
same,"Amenorrhea + spotting only, subjects","[2]; 100 mg daily, no add-back",93%
same,"Amenorrhea (no bleeding), subjects",[2]; [8],at least 86%
same,"Amenorrhea + spotting only, subjects",[2]; [8],at least 93%
same,"Amenorrhea (no bleeding), subjects",[2]; [9],33%
same,"Amenorrhea + spotting only, subjects",[2]; [9],60%
same,"Amenorrhea (no bleeding), subjects",[2]; [10],at least 33%
same,"Amenorrhea + spotting only, subjects",[2]; [10],at least 60%
same,"Amenorrhea (no bleeding), subjects","[2]; 200 mg daily, no add-back",87%
same,"Amenorrhea + spotting only, subjects","[2]; 200 mg daily, no add-back",100%
same,"Amenorrhea (no bleeding), subjects",[2]; [11],at least 87%
same,"Amenorrhea + spotting only, subjects",[2]; [11],100%
same,effect on menstrual bleeding,[2]; 100 or 200 mg/day with or without add-back (FIGS. 20-24),capable of inducing sustained amenorrhea
same,"Median E2 level, E2 Week 1","[3]; 100 mg daily + add-back E2/NETA 0.5 mg/0.1 mg, n = 14, after week 1",25 pg/mL
same,"Median E2 level, E2 Week 6","[3]; 100 mg daily + add-back E2/NETA 0.5 mg/0.1 mg, n = 14, after week 6",40 pg/mL
same,"Median E2 level, E2 Week 1","[3]; 100 mg daily + add-back E2/NETA 1 mg/0.5 mg, n = 15, after week 1",35 pg/mL
same,"Median E2 level, E2 Week 6","[3]; 100 mg daily + add-back E2/NETA 1 mg/0.5 mg, n = 15, after week 6",34 pg/mL
same,"Median E2 level, E2 Week 1","[3]; 100 mg daily, no add-back, n = 14, after week 1",12 pg/mL
same,"Median E2 level, E2 Week 6","[3]; 100 mg daily, no add-back, n = 14, after week 6",18 pg/mL
same,"E2 levels, majority of subjects","[3]; 100 mg/day without add-back, each of days 8, 15 and 22",less than 20 μg/ml
same,"Median E2 level, E2 Week 1","[3]; 200 mg daily + add-back E2/NETA 1 mg/0.5 mg, n = 15, after week 1",27 pg/mL
same,"Median E2 level, E2 Week 6","[3]; 200 mg daily + add-back E2/NETA 1 mg/0.5 mg, n = 15, after week 6",25 pg/mL
same,"Median E2 level, E2 Week 1","[3]; 200 mg daily, no add-back, n = 14, after week 1",5 pg/mL
same,"Median E2 level, E2 Week 6","[3]; 200 mg daily, no add-back, n = 14, after week 6",3 pg/mL
same,"serum E2 concentrations, all subjects","[3]; 200 mg/day stand-alone arm, each of days 8, 15, 22, 29 and 36",less than 20 μg/ml
same,effect on median serum E2 levels,"[3]; 100 or 200 mg/day, 42-day treatment cycle (FIG. 1)",reduced in a dose-dependent manner
